Test results from patent US10377753B2, “Substituted 4-azaindoles and their use as GluN2B receptor modulators” (Janssen Pharmaceutica NV, priority 2015, dated 2019).

Target: cloned human NR1/NR2B ion channels (Homo sapiens (Human), UniProt Q05586+Q13224)
Experiment: HNR2BC: effects of test articles on cloned human NR1/NR2B ion channels expressed in mammalian cells (FLIPR calcium flux)
Format: cell-based
Conditions: cloned human NR1/NR2B ion channels, Table 5
Method in brief: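 In a stable Tet-On-induced cell line expressing human GluN1/GluN2B, Calcium 5-loaded cells were preincubated 5 min with compound, then stimulated 5 min with glutamate at ~EC80 plus 10 μM glycine, in pH 7.4 HEPES buffer. FLIPR calcium fluorescence was normalized to control wells.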

Sequence of cloned human NR1/NR2B ion channels (Q13224 27-1484, other chains not shown): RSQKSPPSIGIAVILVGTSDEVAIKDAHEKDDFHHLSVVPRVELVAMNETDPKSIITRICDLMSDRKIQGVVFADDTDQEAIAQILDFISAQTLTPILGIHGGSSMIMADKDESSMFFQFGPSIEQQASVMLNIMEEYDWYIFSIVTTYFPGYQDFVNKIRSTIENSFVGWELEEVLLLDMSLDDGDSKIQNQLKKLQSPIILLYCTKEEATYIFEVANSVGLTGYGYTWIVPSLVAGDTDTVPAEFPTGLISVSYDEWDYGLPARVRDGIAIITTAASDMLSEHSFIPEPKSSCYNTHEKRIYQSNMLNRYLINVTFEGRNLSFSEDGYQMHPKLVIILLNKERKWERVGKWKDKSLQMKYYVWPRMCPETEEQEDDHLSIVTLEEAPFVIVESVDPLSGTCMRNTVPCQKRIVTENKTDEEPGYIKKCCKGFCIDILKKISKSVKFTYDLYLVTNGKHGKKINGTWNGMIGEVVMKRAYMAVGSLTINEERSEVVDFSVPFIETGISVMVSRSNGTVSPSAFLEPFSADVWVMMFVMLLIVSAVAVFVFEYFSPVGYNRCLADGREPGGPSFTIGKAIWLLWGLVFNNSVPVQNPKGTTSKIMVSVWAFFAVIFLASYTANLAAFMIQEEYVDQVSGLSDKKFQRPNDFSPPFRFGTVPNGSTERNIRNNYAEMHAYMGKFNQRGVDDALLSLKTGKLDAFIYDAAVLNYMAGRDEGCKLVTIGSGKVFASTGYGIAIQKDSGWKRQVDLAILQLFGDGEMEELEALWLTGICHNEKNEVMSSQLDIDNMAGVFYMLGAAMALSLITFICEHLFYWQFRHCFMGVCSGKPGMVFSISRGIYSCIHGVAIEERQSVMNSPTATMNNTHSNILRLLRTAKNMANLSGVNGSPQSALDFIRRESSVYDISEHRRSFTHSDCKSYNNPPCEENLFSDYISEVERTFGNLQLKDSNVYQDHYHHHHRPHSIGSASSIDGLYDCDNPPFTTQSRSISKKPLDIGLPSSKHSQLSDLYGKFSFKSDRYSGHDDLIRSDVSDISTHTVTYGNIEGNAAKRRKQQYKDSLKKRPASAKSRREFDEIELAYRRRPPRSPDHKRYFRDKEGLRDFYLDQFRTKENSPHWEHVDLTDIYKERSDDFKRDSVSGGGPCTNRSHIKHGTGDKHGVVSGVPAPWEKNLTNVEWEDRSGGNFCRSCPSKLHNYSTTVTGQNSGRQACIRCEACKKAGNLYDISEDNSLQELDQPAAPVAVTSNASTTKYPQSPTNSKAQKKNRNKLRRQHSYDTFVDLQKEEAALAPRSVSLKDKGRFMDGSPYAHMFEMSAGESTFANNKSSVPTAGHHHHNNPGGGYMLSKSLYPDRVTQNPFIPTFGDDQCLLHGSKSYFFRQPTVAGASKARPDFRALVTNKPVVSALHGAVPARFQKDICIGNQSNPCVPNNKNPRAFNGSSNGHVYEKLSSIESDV

Question: How did the IC50 turn out when O=C(Cn1cc(Cl)c2ncc(-c3ccccc3F)cc21)N1CC(F)C1 [Example 535, 2-[3-Chloro-6-(2-fluorophenyl)pyrrolo[3,2-b]pyridin-1-yl]-1-(3-fluoroazetidin-1-yl)ethanone] was run?
Answer: 200 nM

Question: With Cc1cccc(-c2cnc3c(Cl)cn(CC(=O)N4CC(F)C4)c3c2)c1F [Example 536, 2-[3-Chloro-6-(2-fluoro-3-methyl-phenyl)pyrrolo[3,2-b]pyridin-1-yl]-1-(3-fluoroazetidin-1-yl)ethanone] as the compound, how does the IC50 read?
Answer: 25.1 nM

Question: For O=C(Cn1cc(Cl)c2ncc(-c3cc(F)cc(F)c3)cc21)N1CC(F)C1 [Example 537, 2-[3-Chloro-6-(3,5-difluorophenyl)pyrrolo[3,2-b]pyridin-1-yl]-1-(3-fluoroazetidin-1-yl)ethanone], which IC50 is on record?
Answer: 12.6 nM

Question: For O=C(Cn1cc(Cl)c2ncc(-c3cccc(C(F)(F)F)c3F)cc21)N1CC(F)C1 [Example 538, 2-[3-Chloro-6-[2-fluoro-3-(trifluoromethyl)phenyl]pyrrolo[3,2-b]pyridin-1-yl]-1-(3-fluoroazetidin-1-yl)ethanone], which IC50 is on record?
Answer: 79.4 nM

Question: With Cc1c(F)ccc(-c2cnc3c(Cl)cn(CC(=O)N4CC(F)C4)c3c2)c1F [Example 539, 2-[3-Chloro-6-(2,4-difluoro-3-methyl-phenyl)pyrrolo[3,2-b]pyridin-1-yl]-1-(3-fluoroazetidin-1-yl)ethanone] as the compound, how does the IC50 read?
Answer: 25.1 nM

Question: O=C(Cn1cc(Cl)c2ncc(-c3ccc(F)c(Cl)c3)cc21)N1CC(F)C1 [Example 540, 2-[3-Chloro-6-(3-chloro-4-fluoro-phenyl)pyrrolo[3,2-b]pyridin-1-yl]-1-(3-fluoroazetidin-1-yl)ethanone] was tested. Which IC50 did it give?
Answer: 25.1 nM

Question: With O=C(Cn1cc(Cl)c2ncc(-c3cccc(Cl)c3F)cc21)N1CC(F)C1 [Example 541, 2-[3-Chloro-6-(3-chloro-2-fluoro-phenyl)pyrrolo[3,2-b]pyridin-1-yl]-1-(3-fluoroazetidin-1-yl)ethanone] as the compound, how does the IC50 read?
Answer: 39.8 nM

Question: CCc1cccc(-c2cnc3c(Cl)cn(CC(=O)N4CC(F)C4)c3c2)c1 [Example 542, 2-[3-Chloro-6-(3-ethylphenyl)pyrrolo[3,2-b]pyridin-1-yl]-1-(3-fluoroazetidin-1-yl)ethanone] was tested. Which IC50 did it give?
Answer: 31.6 nM

Question: Which IC50 does the source give for O=C(Cn1cc(Cl)c2ncc(-c3cccc(F)c3)cc21)N1CC(F)C1 [Example 543, 2-[3-Chloro-6-(3-fluorophenyl)pyrrolo[3,2-b]pyridin-1-yl]-1-(3-fluoroazetidin-1-yl)ethanone] here?
Answer: 20 nM

Question: CN(C)C(=O)Cn1cc(Cl)c2ncc(-c3cccc(Cl)c3F)cc21 [Example 544, 2-[3-Chloro-6-(3-chloro-2-fluoro-phenyl)pyrrolo[3,2-b]pyridin-1-yl]-N,N-dimethyl-acetamide] was tested. Which IC50 did it give?
Answer: 31.6 nM

Question: Which IC50 does the source give for O=C(Cn1cc(Cl)c2ncc(-c3cccc(Cl)c3)cc21)N1CC(F)C1 [Example 545, 2-[3-Chloro-6-(3-chlorophenyl)pyrrolo[3,2-b]pyridin-1-yl]-1-(3-fluoroazetidin-1-yl)ethanone] here?
Answer: 12.6 nM

Question: With O=C(Cn1cc(Cl)c2ncc(-c3cccc(C(F)F)c3)cc21)N1CC(F)C1 [Example 546, 2-[3-Chloro-6-[3-(difluoromethyl)phenyl]pyrrolo[3,2-b]pyridin-1-yl]-1-(3-fluoroazetidin-1-yl)ethanone] as the compound, how does the IC50 read?
Answer: 39.8 nM

Question: With Cc1cccc(-c2cnc3c(F)c(C)n(CC(=O)N4CCC4)c3c2)c1 [Example 547, 1-(Azetidin-1-yl)-2-[3-fluoro-2-methyl-6-(m-tolyl)pyrrolo[3,2-b]pyridin-1-yl]ethanone] as the compound, how does the IC50 read?
Answer: 398 nM

Question: With Cc1cn(CC(=O)N2CCC2)c2cc(-c3ccc(F)c(F)c3)cnc12 [Example 548, 1-(Azetidin-1-yl)-2-[6-(3,4-difluorophenyl)-3-methyl-pyrrolo[3,2-b]pyridin-1-yl]ethanone] as the compound, how does the IC50 read?
Answer: 79.4 nM

Question: With Cc1cn(CC(=O)N(C)C)c2cc(-c3ccc(F)c(F)c3)cnc12 [Example 549, 2-[6-(3,4-Difluorophenyl)-3-methyl-pyrrolo[3,2-b]pyridin-1-yl]-N,N-dimethyl-acetamide] as the compound, how does the IC50 read?
Answer: 79.4 nM

Question: Cc1cccc(-c2cnc3c(C)cn(CC(=O)N4CC(F)C4)c3c2)c1 [Example 550, 1-(3-Fluoroazetidin-1-yl)-2-[3-methyl-6-(m-tolyl)pyrrolo[3,2-b]pyridin-1-yl]ethanone] was tested. Which IC50 did it give?
Answer: 126 nM

Question: For Cc1cn(CC(=O)N2CC(F)C2)c2cc(-c3ccc(F)c(F)c3)cnc12 [Example 551, 2-[6-(3,4-Difluorophenyl)-3-methyl-pyrrolo[3,2-b]pyridin-1-yl]-1-(3-fluoroazetidin-1-yl)ethanone], which IC50 is on record?
Answer: 63.1 nM

Question: Cc1cn(CC(=O)N2CCC2)c2cc(-c3cccc(C(F)(F)F)c3)cnc12 [Example 552, 1-(Azetidin-1-yl)-2-[3-methyl-6-[3-(trifluoromethyl)phenyl]pyrrolo[3,2-b]pyridin-1-yl]ethanone] was tested. Which IC50 did it give?
Answer: 79.4 nM

Question: For Cc1cn(CC(=O)N(C)C)c2cc(-c3cccc(C(F)(F)F)c3)cnc12 [Example 553, N,N-Dimethyl-2-[3-methyl-6-[3-(trifluoromethyl)phenyl]pyrrolo[3,2-b]pyridin-1-yl]acetamide], which IC50 is on record?
Answer: 79.4 nM

Question: How did the IC50 turn out when Cc1cn(CC(=O)N2CC(F)C2)c2cc(-c3cccc(C(F)(F)F)c3)cnc12 [Example 554, 1-(3-Fluoroazetidin-1-yl)-2-[3-methyl-6-[3-(trifluoromethyl)phenyl]pyrrolo[3,2-b]pyridin-1-yl]ethanone] was run?
Answer: 200 nM

Question: How did the IC50 turn out when Cc1cn(CC(=O)N(C)C)c2cc(-c3cc(F)cc(F)c3)cnc12 [Example 555, 2-[6-(3,5-Difluorophenyl)-3-methyl-pyrrolo[3,2-b]pyridin-1-yl]-N,N-dimethyl-acetamide] was run?
Answer: 63.1 nM

Question: How did the IC50 turn out when Cc1cn(CC(=O)N2CCC2)c2cc(-c3cc(F)cc(F)c3)cnc12 [Example 556, 1-(Azetidin-1-yl)-2-[6-(3,5-difluorophenyl)-3-methyl-pyrrolo[3,2-b]pyridin-1-yl]ethanone] was run?
Answer: 398 nM

Question: CCN(C)C(=O)Cn1cc(C)c2ncc(-c3cc(F)cc(F)c3)cc21 [Example 557, 2-[6-(3,5-Difluorophenyl)-3-methyl-pyrrolo[3,2-b]pyridin-1-yl]-N-ethyl-N-methyl-acetamide] was tested. Which IC50 did it give?
Answer: 126 nM

Question: How did the IC50 turn out when Cc1cn(CC(=O)N(C)C)c2cc(-c3ccc(F)cc3)cnc12 [Example 558, 2-[6-(4-Fluorophenyl)-3-methyl-pyrrolo[3,2-b]pyridin-1-yl]-N,N-dimethyl-acetamide] was run?
Answer: 79.4 nM

Question: For CCN(C)C(=O)Cn1cc(C)c2ncc(-c3ccc(F)cc3)cc21 [Example 559, N-Ethyl-2-[6-(4-fluorophenyl)-3-methyl-pyrrolo[3,2-b]pyridin-1-yl]-N-methyl-acetamide], which IC50 is on record?
Answer: 158 nM

Question: How did the IC50 turn out when CCN(C)C(=O)Cn1cc(C)c2ncc(-c3cccc(C)c3F)cc21 [Example 560, N-Ethyl-2-[6-(2-fluoro-3-methyl-phenyl)-3-methyl-pyrrolo[3,2-b]pyridin-1-yl]-N-methyl-acetamide] was run?
Answer: 794 nM

Question: Which IC50 does the source give for Cc1cccc(-c2cnc3c(C)cn(CC(=O)N4CCC4)c3c2)c1F [Example 561, 1-(Azetidin-1-yl)-2-[6-(2-fluoro-3-methyl-phenyl)-3-methyl-pyrrolo[3,2-b]pyridin-1-yl]ethanone] here?
Answer: 398 nM

Question: Cc1cccc(-c2cnc3c(C)cn(CC(=O)N(C)C)c3c2)c1F [Example 562, 2-[6-(2-Fluoro-3-methyl-phenyl)-3-methyl-pyrrolo[3,2-b]pyridin-1-yl]-N,N-dimethyl-acetamide] was tested. Which IC50 did it give?
Answer: 50.1 nM

Question: Which IC50 does the source give for Cc1cccc(-c2cnc3c(C)cn(CC(=O)N4CC(F)C4)c3c2)c1F [Example 563, 1-(3-Fluoroazetidin-1-yl)-2-[6-(2-fluoro-3-methyl-phenyl)-3-methyl-pyrrolo[3,2-b]pyridin-1-yl]ethanone] here?
Answer: 39.8 nM

Question: For Cc1cccc(-c2cnc3c(C)cn(CC(=O)N4CC(F)(F)C4)c3c2)c1F [Example 564, 1-(3,3-Difluoroazetidin-1-yl)-2-[6-(2-fluoro-3-methyl-phenyl)-3-methyl-pyrrolo[3,2-b]pyridin-1-yl]ethanone], which IC50 is on record?
Answer: 100 nM

Question: For Cc1cccc(-c2cnc3c(C)cn(CC(=O)N4CCCC4)c3c2)c1F [Example 565, 2-[6-(2-Fluoro-3-methyl-phenyl)-3-methyl-pyrrolo[3,2-b]pyridin-1-yl]-1-pyrrolidin-1-yl-ethanone], which IC50 is on record?
Answer: 126 nM

Question: How did the IC50 turn out when Cc1cc(-c2cnc3c(C)cn(CC(=O)N(C)C)c3c2)ccc1F [Example 566, 2-[6-(4-Fluoro-3-methyl-phenyl)-3-methyl-pyrrolo[3,2-b]pyridin-1-yl]-N,N-dimethyl-acetamide] was run?
Answer: 50.1 nM

Question: With Cc1cn(CC(=O)N2CCCC2)c2cc(-c3cccc(C(F)(F)F)c3)cnc12 [Example 567, 2-[3-Methyl-6-[3-(trifluoromethyl)phenyl]pyrrolo[3,2-b]pyridin-1-yl]-1-pyrrolidin-1-yl-ethanone] as the compound, how does the IC50 read?
Answer: 200 nM

Question: With CCN(C)C(=O)Cn1cc(C)c2ncc(-c3cccc(C(F)(F)F)c3)cc21 [Example 568, N-Ethyl-N-methyl-2-[3-methyl-6-[3-(trifluoromethyl)phenyl]pyrrolo[3,2-b]pyridin-1-yl]acetamide] as the compound, how does the IC50 read?
Answer: 501 nM

Question: With Cc1cn(CC(=O)N2CC(F)(F)C2)c2cc(-c3cccc(C(F)(F)F)c3)cnc12 [Example 569, 1-(3,3-Difluoroazetidin-1-yl)-2-[3-methyl-6-[3-(trifluoromethyl)phenyl]pyrrolo[3,2-b]pyridin-1-yl]ethanone] as the compound, how does the IC50 read?
Answer: 398 nM

Question: Which IC50 does the source give for Cc1cn(CC(=O)N2CCC2)c2cc(-c3cc(F)c(F)c(F)c3)cnc12 [Example 570, 1-(Azetidin-1-yl)-2-[3-methyl-6-(3,4,5-trifluorophenyl)pyrrolo[3,2-b]pyridin-1-yl]ethanone] here?
Answer: 63.1 nM

Question: Which IC50 does the source give for Cc1cn(CC(=O)N(C)C)c2cc(-c3cc(F)c(F)c(F)c3)cnc12 [Example 571, N,N-Dimethyl-2-[3-methyl-6-(3,4,5-trifluorophenyl)pyrrolo[3,2-b]pyridin-1-yl]acetamide] here?
Answer: 50.1 nM

Question: Cc1cccc(-c2cnc3c(C)cn(CC(=O)N(C)C)c3c2)c1 [Example 572, N,N-Dimethyl-2-[3-methyl-6-(m-tolyl)pyrrolo[3,2-b]pyridin-1-yl]acetamide] was tested. Which IC50 did it give?
Answer: 79.4 nM

Question: Cc1csc(-c2cnc3c(C)cn(CC(=O)N(C)C)c3c2)c1 [Example 573, N,N-Dimethyl-2-[3-methyl-6-(4-methyl-2-thienyl)pyrrolo[3,2-b]pyridin-1-yl]acetamide] was tested. Which IC50 did it give?
Answer: 126 nM
